Assay results as given in patent publication US11879140B2, “P21 mRNA targeting DNAzymes” (1E Therapeutics Ltd., priority 2020, dated 2024).

System: senescent human IMR-90 fibroblast cells
Assay type: cell-based
Description: Human IMR-90, BJ, WI-38 fibroblasts and REC epithelial cells were obtained from ATCC and grown at 5% oxygen. IMR-90 and REC cells were maintained in DMEM medium comprising 100 units per ml of penicillin, […] of streptomycin and 10% fetal bovine serum. BJ and WI-38 cells were maintained in EMEM medium comprising 100 units per ml of penicillin, […] of streptomycin, 10% fetal bovine serum, 1% Pyruvate, 1% L-Glutamine, mLFs were isolated according to standard procedures [Seluanov, A., et al. J Vis Exp (2010) (44):2033] and grown at 5% oxygen. Cells were maintained in EMEM medium comprising 100 units per ml of penicillin, […] of streptomycin and 15% fetal bovine serum.
DNA damage induced senescence (DIS) was induced by etoposide treatment (E1383, Sigma) at a concentration of […] for IMR-90, BJ, and WI-38, 16 μM for mLF and 12.5 μM for REC for a duration of 48 hours. Cells acquired the senescence phenotype 7 days post treatment (determined by SA-beta-gal staining).
Oncogene Induced Senescence (OIS) was induced by means of retroviral infection with H-RasG12 (pLNCX2) at 5% oxygen. Retroviruses were packaged, and infections were performed as described below.
Replicative Induced Senescence (RIS) was induced by long-term passaging of the cells in tissue culture. Cells acquired the senescence phenotype after 40 population doublings.
Primary target cells (IMR-90, BJ, […]) were plated in 24-well plates at 100,000 cells per well. Cells were transfected with different concentrations of DNAzymes (as depicted in Table 2, below) using Lipofectamine™ 2000 (Invitrogen) according to manufacturer instructions. The percentage of survival was determined based on quantification of remaining adherent cells using PrestoBlue® reagent (A13262, Life Technologies Ltd.) relative to Lipofectamine™ only control and compared to Scramble DNAzyme (Dz_Scramble) [Scramble Arm (Scr A) sequence: ATCTTCCTFggctagctacaacgaCGCCTCTCC, SEQ ID NO: 5, or Scramble catalytic core (Scr B) sequence: AGGAGAACAacagtaactggcgacGGGATGAGG, SEQ ID NO: 86] treated cells, 3-6 days following transfection.

Question: “603 (DNA ATCCCGGCTCCGAGCCGGACGACGCCGGGGC; chemistry not given here) [compound 603]” was tested. Which Validated cytotoxicity did it give?
Answer: The Validated cytotoxicity was “+”.

Question: “1854 (DNA CCTGTGCCAGGCTAGCTACAACGACACATGGGA; chemistry not given here) [compound 1854]” was tested. Which Validated cytotoxicity did it give?
Answer: The Validated cytotoxicity was “+”.

Question: For “1641 (DNA AGAGGGGAAGGCTAGCTACAACGATGCAGAGCC; chemistry not given here) [compound 1641]”, which Validated cytotoxicity is on record?
Answer: The Validated cytotoxicity was “+”.

Question: Which Validated cytotoxicity does the source give for “185 (DNA CAGATCATGGGCTAGCTACAACGAAGCAAAGAA; chemistry not given here) [compound 185]” here?
Answer: Its Validated cytotoxicity is “+”.

Question: How did the Validated cytotoxicity turn out when “16 (DNA CCTCTTCTAGGCTAGCTACAACGAGCCAGAGCT; chemistry not given here) [compound 16]” was run?
Answer: Its Validated cytotoxicity is “+”.

Question: For “442 (DNA AGTCGCGGTCCGAGCCGGACGACAGCTGCTC; chemistry not given here) [compound 442]”, which Validated cytotoxicity is on record?
Answer: Its Validated cytotoxicity is “+”.

Question: “1838 (DNA GGACCCTCAGGCTAGCTACAACGACCCCACAGC; chemistry not given here) [compound 1838]” was tested. Which Validated cytotoxicity did it give?
Answer: The Validated cytotoxicity was “+”.

Question: For “364 (DNA TGACGGACAGGCTAGCTACAACGACCCCAGCCG; chemistry not given here) [compound 364]”, which Validated cytotoxicity is on record?
Answer: The Validated cytotoxicity was “+”.

Question: “1851 (DNA GTGCCACCAGGCTAGCTACAACGAATGGGACCC; chemistry not given here) [compound 1851]” was tested. Which Validated cytotoxicity did it give?
Answer: Its Validated cytotoxicity is “+”.

Question: With “1252 (DNA GGGGGTGAAGGCTAGCTACAACGATTCATAACC; chemistry not given here) [compound 1252]” as the substance, how does the Validated cytotoxicity read?
Answer: The Validated cytotoxicity was “+”.

Question: “1736 (DNA CCATTGAGTCCGAGCCGGACGAGGGGGTGGG; chemistry not given here) [compound 1736]” was tested. Which Validated cytotoxicity did it give?
Answer: Its Validated cytotoxicity is “+”.

Question: For “1582 (DNA CAGGGGAGTCCGAGCCGGACGAAAAGAGGGA; chemistry not given here) [compound 1582]”, which Validated cytotoxicity is on record?
Answer: Its Validated cytotoxicity is “+”.

Question: How did the Validated cytotoxicity turn out when “2215 (DNA GAGAGAAAAGGCTAGCTACAACGAAGTCCAGGC; chemistry not given here) [compound 2215]” was run?
Answer: The Validated cytotoxicity was “+”.

Question: How did the Validated cytotoxicity turn out when “2200 (DNA AGGCCAGTAGGCTAGCTACAACGAGTTACAGGA; chemistry not given here) [compound 2200]” was run?
Answer: Its Validated cytotoxicity is “+”.

Question: Which Validated cytotoxicity does the source give for “1467 (DNA TTCACAAGAGGCTAGCTACAACGAAGAGGGGGG; chemistry not given here) [compound 1467]” here?
Answer: Its Validated cytotoxicity is “+”.

Question: For “495 (DNA GAAGTTCCAGGCTAGCTACAACGACGCTCACGG; chemistry not given here) [compound 495]”, which Validated cytotoxicity is on record?
Answer: The Validated cytotoxicity was “+”.

Question: “1719 (DNA GGGGTGGGAGGCTAGCTACAACGAAGGCACCTC; chemistry not given here) [compound 1719]” was tested. Which Validated cytotoxicity did it give?
Answer: Its Validated cytotoxicity is “+”.

Question: For “1947 (DNA GCTGGACGAGGCTAGCTACAACGATTGAGGGGC; chemistry not given here) [compound 1947]”, which Validated cytotoxicity is on record?
Answer: The Validated cytotoxicity was “+”.

Question: Which Validated cytotoxicity does the source give for “394 (DNA AGGCCTTGTCCGAGCCGGACGAGCCGCATGG; chemistry not given here) [compound 394]” here?
Answer: The Validated cytotoxicity was “+”.

Question: Which Validated cytotoxicity does the source give for “377 (DNA GGGTTCTGAGGCTAGCTACAACGAGGACATCCC; chemistry not given here) [compound 377]” here?
Answer: The Validated cytotoxicity was “+”.

Question: “1684 (DNA GAGAGGGTAGGCTAGCTACAACGATGAAGGGAA; chemistry not given here) [compound 1684]” was tested. Which Validated cytotoxicity did it give?
Answer: Its Validated cytotoxicity is “+”.

Question: “224 (DNA TGGGGAAATCCGAGCCGGACGAGGGGCTCAG; chemistry not given here) [compound 224]” was tested. Which Validated cytotoxicity did it give?
Answer: The Validated cytotoxicity was “+”.

Question: “237 (DNA CCGTATACAGGCTAGCTACAACGATGCTGGGGA; chemistry not given here) [compound 237]” was tested. Which Validated cytotoxicity did it give?
Answer: The Validated cytotoxicity was “+”.

Question: With “1991 (DNA AAAGTGCAAGGCTAGCTACAACGAGAACTGGGG; chemistry not given here) [compound 1991]” as the substance, how does the Validated cytotoxicity read?
Answer: Its Validated cytotoxicity is “+”.

Question: For “1524 (DNA GAGGGGCCAGGCTAGCTACAACGAGAGGGCAGG; chemistry not given here) [compound 1524]”, which Validated cytotoxicity is on record?
Answer: Its Validated cytotoxicity is “+”.
